Where two headings read alike, the source gives them in different places.
What was measured:
[1] = system: Human fibroblasts; conditions: for extracellular matrix production: 0.02 nM triiodothyronine or 1 μM isoprenaline added to medium with insulin, EGF and hydrocortisone (Table 2), FIGS. 10 and 11
Experimental: (§1) The analysis method followed the manufacturer's instructions.
Culture media each lacking an individual factor were prepared, and then culture was performed according to Example 1.1.
Then, culture was performed according to Example 1.1.

[2] = system: human fibroblast/keratinocyte culture; assay: Type IV collagen produced in culture medium of co-cultured human fibroblasts/keratinocytes after administration of vitamin C; type: cell-based; conditions: serum-free FAD medium, 13 days, FIG. 28
Experimental: (§2) The human keratinocyte culture obtained by culture for 7 days according to Example 3.1.2 was removed, followed by washing once with PBS. Thereafter, 3 mL of Accutase was added, and then the keratinocytes were suspended by treatment with chemical reaction for 10 minutes in an incubator at 37° C. After 40 mL of PBS was added to the Accutase solution, the mixture was centrifuged at 800 rpm and 25° C. for 5 minutes, and the supernatant was then removed. To the keratinocyte precipitate, FAD medium (DMEM/F12 (1:1)+Glutamax-I, 1% penicillin, 2 mM L-glutamine, 10 mg/L insulin, 5.5 mg/L transferrin, 5 μg/L selenite, 50 μM L-ascorbic acid 2-phosphate, 1 μM hydrocortisone, 0.02 nM triiodothyronine (T3), 10 μg/L epidermal growth factor (EGF), and 1 μM isoproterenol) supplemented with 5% fatal bovine serum was added. The human dermal fibroblasts culture obtained by culture for 7 days in Example 3.1.1 was removed, and then the keratinocytes were dispensed thereon at a density of 1-2×10^6 cells per culture dish and cultured in an incubator at 37° C. for 24 hours.
(§3) The human fibroblast/keratinocyte culture obtained by culture for 24 hours according to Example 3.1.3 was removed, followed by washing once with PBS. To 35 mL of a serum-free FAD medium (DMEM/F12 (1:1)+Glutamax-I, 1% penicillin, 2 mM L-glutamine, 10 mg/L insulin, 5.5 mg/L transferrin, 5 μg/L selenite, 50 μM L-ascorbic acid 2-phosphate, 1 μM hydrocortisone, 0.02 nM triiodothyronine (T3), 10 μg/L epidermal growth factor (EGF), and 1 μM isoproterenol), vitamin C was added at a concentration of 50 μM, 100 μM, or 200 μM, and then the cells were cultured in an incubator at 37° C. for a total of 13 days while the medium was exchanged every 2-3 days. The culture obtained by previous culture was collected.
as §1

[3] = system: human fibroblast/keratinocyte culture; assay: Total collagen produced in culture medium of co-cultured human fibroblasts/keratinocytes after administration of NAC; type: cell-based; conditions: for total collagen produced: 13 days, control without NAC 77.1-99.5 μg/mL, FIG. 27
Experimental: as §2
as §3, with “N-acetyl cysteine (NAC)” for “vitamin C”, “0.1 mM, 0.5 mM, 1 mM,” for “50 μM, 100 μM,”, “5 mM,” for “200 μM,”
as §1

[4] = system: Human fibroblasts; assay: Total collagen content in cell culture of single-cultured human fibroblasts (Sirius Red kit, absorbance 530 nm); conditions: 50 μM ascorbate-2-phosphate added to medium with insulin, EGF and hydrocortisone (Table 2); FIG. 11
Experimental: To measure the human collagen content in the extracellular matrix present in a culture obtained according to each example described below, quantitative analysis was conducted by utilizing a commercially available Sirius Red kit (Chondrex, #9062). The analysis method followed the manufacturer's instructions. Specifically, Sirius Red solution was added to the culture, followed by incubation, and the precipitated collagen was then mixed with an acidic solution and quantitatively analyzed by measurement of absorbance at 530 nm.
Human fibroblasts were seeded at a density of 3×10^5 cells per 150-mm^2 culture dish. The cells were cultured in high-glucose Dulbecco's Modified Eagle's Medium (DMEM) supplemented with 10% fetal bovine serum and 1% penicillin for 7 days while a growth medium was exchanged every 2-3 days.
(§4) After being cultured according to Example 1.1.1, the cells were further cultured from day 8 using a serum-free/xeno-free culture medium [Dulbecco's Modified Eagle Medium: Ham's F-12 (1:1) supplemented with 100 (DMEM/F12) U/mL penicillin/streptomycin, 2 mM L-alanyl-L-glutamine, 5 μg/L selenium, 50 M ascorbate-2-phosphate, 10 mg/L insulin, 1 μM hydrocortisone, 0.02 nM triiodothyronine, 1 μM isoprenaline, and 10 μg/L epidermal growth factor] while the medium was exchanged at intervals of 2 to 3 days. […] The cell culture after collection was analyzed according to Example 3. […]

[5] = system: Human fibroblasts; assay: Laminin content in cell culture of single-cultured human fibroblasts (anti-human laminin antibody plate kit, absorbance 450 nm); conditions: 50 μM ascorbate-2-phosphate added to medium with insulin, EGF and hydrocortisone (Table 2); FIG. 10
Experimental: To measure the amount of human laminin component in the extracellular matrix present in a culture obtained according to each example described below, quantitative analysis was conducted by using a commercially available analysis kit (TakaRa, MK107). The analysis method followed the manufacturer's instructions. Specifically, the culture was added onto a 96-well plate coated with an anti-human laminin antibody, followed by incubation. Thereafter, residues were washed off, and a chromogenic enzyme-conjugated specific antibody was added, followed by incubation. Then, quantitative analysis was conducted by measurement of the absorbance at 450 nm.
Human fibroblasts were seeded at a density of 3×10^5 cells per 150-mm^2 culture dish. […]
as §4

[6] = factor individually removed from serum-free/xeno-free culture medium (Table 1), compared with medium containing all factors, FIGS. 8 and 9
[7] = NAC at a concentration of 1 mM or higher (1 mM, 5 mM)

O=C[C@H](O)[C@@H](O)[C@H](O)[C@H](O)CO [glucose]
amount of extracellular matrix produced ([1]; glucose concentration 55 mM in DMEM medium (compared with 5.5, 25 and 40 mM), FIGS. 14 and 15): reduced

O=C1O[C@H]([C@@H](O)CO)C(O)=C1O [vitamin C]
Type IV collagen produced ([2]; 50 μM vitamin C (called control group)): 4.17 µg/mL
Type IV collagen produced ([2]; 100 μM vitamin C): 5.6 µg/mL
Type IV collagen produced ([2]; 200 μM vitamin C): 5.69 µg/mL

CC(C)NCC(O)c1ccc(O)c(O)c1 (centres unmarked) [isoprenaline, reference compound]
extracellular matrix production [1]: affected

insulin: additive of the serum-free/xeno-free culture medium, 10 mg/L
amount of extracellular matrix produced [1, 6]: significantly reduced

N[C@@H](Cc1cc(I)c(Oc2ccc(O)c(I)c2)c(I)c1)C(=O)O [triiodothyronine, reference compound]
extracellular matrix production [1]: affected

C[C@]12CCC(=O)C=C1CC[C@@H]1[C@@H]2[C@@H](O)C[C@@]2(C)[C@H]1CC[C@]2(O)C(=O)CO [hydrocortisone, reference compound]
amount of extracellular matrix produced [1, 6]: significantly reduced

CC(=O)N[C@@H](CS)C(=O)O [NAC, N-acetyl cysteine]
total collagen produced ([3]; 0.1 mM NAC in serum-free FAD medium): 122.1 to 137.5 µg/mL
total collagen produced ([3]; 0.5 mM NAC in serum-free FAD medium): 112.7 to 130.9 µg/mL
amount of collagen produced [3, 7]: reduced
cytotoxicity [3, 7]: cytotoxicity was observed

ascorbate-2-phosphate
collagen production [4]: greatly affected
laminin production [5]: did not affect
